Measured values published in US9783573B2, “IAP antagonists” (BRISTOL-MYERS SQUIBB COMPANY, priority 2012, dated 2017).

Tests used:
Format in all cases: binding
[1] = target: His-BIR3 (241-356, XIAP) (Homo sapiens (Human), UniProt P98170); assay: XIAP-BIR3/SMAC Homogeneous Time Resolved Fluorescence (HTRF) Assay; settings: fluorescein labeled SMAC peptide
Description: B. XIAP-BIR3/SMAC Homogeneous Time Resolved Fluorescence (HTRF) Assay
(§1) Assays were performed in black, flat-bottom, 384-well plates.

[2] = target: His-BIR2-3 (125-356, C202A/C213G, XIAP) (Homo sapiens (Human), UniProt P98170, C202A/C213G); assay: XIAP-BIR2-3 Dimeric SMAC Peptide Homogeneous Time Resolved Fluorescence (HTRF) Assay; settings: fluorescein labeled dimeric SMAC peptide
Description: D. XIAP-BIR2-3 Dimeric SMAC Peptide Homogeneous Time Resolved Fluorescence (HTRF) Assay
as §1

[3] = target: N-His-Tb-BIR3 (241-356, XIAP) (Homo sapiens (Human), UniProt P98170); assay: biochemical; settings: fluoresceinated modified SMAC peptide, fluorescence polarization; read-out: XIAP BIR3 FPA IC50

Structure (SMILES) | IC50 [1] [µM] | IC50 [2] [µM] | IC50 [3] [µM]
CN[C@@H](C)C(=O)N[C@H](C(=O)N1Cc2cc(NC(=O)c3cccc4c3ccn4C(=O)N[C@H]3C[C@@H](C(=O)N[C@@H]4CCCc5ccccc54)N(C(=O)[C@@H](NC(=O)[C@H](C)NC)C(C)(C)C)C3)ccc2C[C@H]1C(=O)N[C@H](C)c1ccccc1F)C(C)(C)C [Example 51] | 0.054 | 0.027 | –
CN[C@@H](C)C(=O)N[C@H](C(=O)N1C[C@@H](NC(=O)c2ccc(C(=O)Nc3ccc4c(c3)CN(C(=O)[C@@H](NC(=O)[C@H](C)NC)C(C)(C)SCC(=O)Nc3nccs3)[C@H](C(=O)N[C@@H]3CCCc5ccccc53)C4)cc2)C[C@H]1C(=O)N[C@@H]1CCCc2ccccc21)C(C)(C)C [Example 60, N^1-((3S,5S)-1-((S)-3,3-Dimethyl-2-((S)-2-(methylamino)propanamido)butanoyl)-5-(((R)-1,2,3,4-tetrahydronaphthalen-1-yl)carbamoyl)pyrrolidin-3-yl)-N^4-((S)-2-((R)-3-methyl-2-((S)-2-(methylamino)propanamido)-3-((2-oxo-2-(thiazol-2-ylamino)ethyl)thio)butanoyl)-3-(((R)-1,2,3,4-tetrahydronaphthalen-1-yl)carbamoyl)-1,2,3,4-tetrahydroisoquinolin-7-yl)terephthalamide] | 0.042 | 0.022 | –
CN[C@@H](C)C(=O)N[C@H](C(=O)N1Cc2cc(C(=O)Nc3nc(C(=O)N[C@H]4C[C@@H](C(=O)N[C@@H]5CCCc6ccccc65)N(C(=O)[C@@H](NC(=O)[C@H](C)NC)C(C)(C)C)C4)co3)ccc2C[C@H]1C(=O)N[C@@H]1CCCc2ccccc21)C(C)(C)C [Example 22, (S)-2-((S)-3,3-Dimethyl-2-((S)-2-(methylamino)propanamido)butanoyl)-N^7-(4-(((3S,5S)-1-((S)-3,3-dimethyl-2-((S)-2-(methylamino)propanamido)butanoyl)-5-(((R)-1,2,3,4-tetrahydronaphthalen-1-yl)carbamoyl)pyrrolidin-3-yl)carbamoyl)oxazol-2-yl)-N^3-((R)-1,2,3,4-tetrahydronaphthalen-1-yl)-1,2,3,4-tetrahydroisoquinoline-3,7-dicarboxamide] | 0.014 | 0.004 | –
CN[C@@H](C)C(=O)N[C@H](C(=O)N1Cc2cc(C(=O)Nc3ccc4cc(C(=O)N[C@H]5C[C@@H](C(=O)N[C@@H]6CCCc7ccccc76)N(C(=O)[C@@H](NC(=O)[C@H](C)NC)C(C)(C)C)C5)[nH]c4c3)ccc2C[C@H]1C(=O)N[C@@H]1CCCc2ccccc21)C(C)(C)C [Example 24, (S)-2-((S)-3,3-Dimethyl-2-((S)-2-(methylamino)propanamido)butanoyl)-N^7-(2-(((3S,5S)-1-((S)-3,3-dimethyl-2-((S)-2-(methylamino)propanamido)butanoyl)-5-(((R)-1,2,3,4-tetrahydronaphthalen-1-yl)carbamoyl)pyrrolidin-3-yl)carbamoyl)-1H-indol-6-yl)-N^3-((R)-1,2,3,4-tetrahydronaphthalen-1-yl)-1,2,3,4-tetrahydroisoquinoline-3,7-dicarboxamide] | 0.093 | 0.033 | –
CN[C@@H](C)C(=O)N[C@H](C(=O)N1C[C@@H](NC(=O)c2ccc(C(=O)Nc3ccc4c(c3)CN(C(=O)[C@@H](NC(=O)[C@H](C)NC)C(C)(C)SCC(=O)N3CCOCC3)[C@H](C(=O)N[C@@H]3CCCc5ccccc53)C4)cc2)C[C@H]1C(=O)N[C@@H]1CCCc2ccccc21)C(C)(C)C [Example 61, N^1-((3S,5S)-1-((S)-3,3-Dimethyl-2-((S)-2-(methylamino)propanamido)butanoyl)-5-(((R)-1,2,3,4-tetrahydronaphthalen-1-yl)carbamoyl)pyrrolidin-3-yl)-N^4-((S)-2-((R)-3-methyl-2-((S)-2-(methylamino)propanamido)-3-((2-morpholino-2-oxoethyl)thio)butanoyl)-3-(((R)-1,2,3,4-tetrahydronaphthalen-1-yl)carbamoyl)-1,2,3,4-tetrahydroisoquinolin-7-yl)terephthalamide] | 0.031 | 0.016 | –
CN[C@@H](C)C(=O)N[C@H](C(=O)N1Cc2cc(NC(=O)c3ccc(C(=O)N[C@H]4C[C@@H](C(=O)N[C@@H]5CCCc6ccccc65)N(C(=O)[C@@H](NC(=O)[C@H](C)NC)C(C)(C)C)C4)cc3)ccc2C[C@H]1C(=O)N[C@H](C)c1ccccc1F)C(C)(C)C [Example 11, N^1-((S)-2-((S)-3,3-Dimethyl-2-((S)-2-(methylamino)propanamido)butanoyl)-3-(((R)-1-(2-fluorophenyl)ethyl)carbamoyl)-1,2,3,4-tetrahydroisoquinolin-7-yl)-N^4-((3S,5S)-1-((S)-3,3-dimethyl-2-((S)-2-(methylamino)propanamido)butanoyl)-5-(((R)-1,2,3,4-tetrahydronaphthalen-1-yl)carbamoyl)pyrrolidin-3-yl)terephthalamide] | 0.018 | 0.012 | –
CN[C@@H](C)C(=O)N[C@H](C(=O)N1Cc2cc(N(C(=O)C3(C(N)=O)CC3)[C@H]3C[C@@H](C(=O)N[C@@H]4CCCc5ccccc54)N(C(=O)[C@@H](NC(=O)[C@H](C)NC)C(C)(C)C)C3)ccc2C[C@H]1C(=O)N[C@@H]1CCCc2ccccc21)C(C)(C)C [Example 4, N-((S)-2-((S)-3,3-Dimethyl-2-((S)-2-(methylamino)propanamido)butanoyl)-3-(((R)-1,2,3,4-tetrahydronaphthalen-1-yl)carbamoyl)-1,2,3,4-tetrahydroisoquinolin-7-yl)-N-((3S,5S)-1-((S)-3,3-dimethyl-2-((S)-2-(methylamino)propanamido)butanoyl)-5-(((R)-1,2,3,4-tetrahydronaphthalen-1-yl)carbamoyl)pyrrolidin-3-yl)cyclopropane-1,1-dicarboxamide] | – | – | 0.053
CN[C@@H](C)C(=O)N[C@H](C(=O)N1Cc2ccc(NC(=O)c3ccc(C(=O)N[C@H]4C[C@@H](C(=O)N[C@@H]5CCCc6ccccc65)N(C(=O)[C@@H](NC(=O)[C@H](C)NC)C(C)(C)C)C4)cc3)cc2C[C@H]1C(=O)N[C@@H]1CCCc2ccccc21)C(C)(C)C [Example 2, N^1—((S)-2-((S)-3,3-Dimethyl-2-((S)-2-(methylamino)propanamido)butanoyl)-3-(((R)-1,2,3,4-tetrahydronaphthalen-1-yl)carbamoyl)-1,2,3,4-tetrahydroisoquinolin-6-yl)-N^4-((3S,5S)-1-((S)-3,3-dimethyl-2-((S)-2-(methylamino)propanamido)butanoyl)-5-(((R)-1,2,3,4-tetrahydronaphthalen-1-yl)carbamoyl)pyrrolidin-3-yl)terephthalamide] | – | 0.004 | –
CN[C@@H](C)C(=O)N[C@H](C(=O)N1Cc2ccc(OCc3ccc(C(=O)N[C@H]4C[C@@H](C(=O)NC5CCCc6ccccc65)N(C(=O)[C@@H](NC(=O)[C@H](C)NC)C(C)(C)C)C4)cc3)cc2C[C@@H]1C(=O)NC1CCCc2ccccc21)C(C)(C)C (stereo partly drawn) [Example 42, (R)-2-((S)-3,3-Dimethyl-2-((S)-2-(methylamino)propanamido)butanoyl)-6-((4-(((3S,5S)-1-((S)-3,3-dimethyl-2-((5)-2-(methylamino)propanamido)butanoyl)-5-(((R)-1,2,3,4-tetrahydronaphthalen-1-yl)carbamoyl)pyrrolidin-3-yl)carbamoyl)benzyl)oxy)-N-((R)-1,2,3,4-tetrahydronaphthalen-1-yl)-1,2,3,4-tetrahydroisoquinoline-3-carboxamide] | – | – | 0.24
CC[C@H](NC)C(=O)N[C@H](C(=O)N1Cc2cc(NC(=O)c3ccc(C(=O)N[C@H]4C[C@@H](C(=O)N[C@@H]5CCCc6ccccc65)N(C(=O)[C@@H](NC(=O)[C@H](C)NC)C(C)(C)C)C4)cc3)ccc2C[C@H]1C(=O)N[C@@H]1CCCc2ccccc21)C(C)(C)C [Example 15, N^1-((S)-2-((S)-3,3-Dimethyl-2-((S)-2-(methylamino)butanamido)butanoyl)-3-(((R)-1,2,3,4-tetrahydronaphthalen-1-yl)carbamoyl)-1,2,3,4-tetrahydroisoquinolin-7-yl)-N^4-((3S,5S)-1-((S)-3,3-dimethyl-2-((S)-2-(methylamino)propanamido)butanoyl)-5-(((R)-1,2,3,4-tetrahydronaphthalen-1-yl)carbamoyl)pyrrolidin-3-yl)terephthalamide] | – | – | 0.11
CCN[C@@H](C)C(=O)N[C@H](C(=O)N1Cc2cc(NC(=O)c3ccc(C(=O)N[C@H]4C[C@@H](C(=O)N[C@@H]5CCCc6ccccc65)N(C(=O)[C@@H](NC(=O)[C@H](C)NC)C(C)(C)C)C4)cc3)ccc2C[C@H]1C(=O)N[C@@H]1CCCc2ccccc21)C(C)(C)C [Example 34, N^1-((3S,5S)-1-((S)-3,3-dimethyl-2-((S)-2-(methylamino)propanamido)butanoyl)-5-(((R)-1,2,3,4-tetrahydronaphthalen-1-yl)carbamoyl)pyrrolidin-3-yl)-N^4-((S)-2-((S)-2-((S)-2-(ethylamino)propanamido)-3,3-dimethylbutanoyl)-3-(((R)-1,2,3,4-tetrahydronaphthalen-1-yl)carbamoyl)-1,2,3,4-tetrahydroisoquinolin-7-yl)terephthalamide] | – | – | 0.15
CN[C@@H](C)C(=O)N[C@H](C(=O)N1Cc2ccc(OCc3ccc(C(=O)N[C@H]4C[C@@H](C(=O)N[C@@H]5CCCc6ccccc65)N(C(=O)[C@@H](NC(=O)[C@H](C)NC)C(C)(C)C)C4)cc3)cc2C[C@H]1C(=O)N[C@@H]1CCCc2ccccc21)C(C)(C)C [Example 41, (S)-2-((S)-3,3-Dimethyl-2-((S)-2-(methylamino)propanamido)butanoyl)-6-((4-(((3S,5S)-1-((S)-3,3-dimethyl-2-((S)-2-(methylamino)propanamido)butanoyl)-5-(((R)-1,2,3,4-tetrahydronaphthalen-1-yl)carbamoyl)pyrrolidin-3-yl)carbamoyl)benzyl)oxy)-N-((R)-1,2,3,4-tetrahydronaphthalen-1-yl)-1,2,3,4-tetrahydroisoquinoline-3-carboxamide] | – | – | 0.065
